# Assay results as given in the Kinase Knowledgebase extract (Sharma et al. 2016).
# Molecular target: PIK3CD (Human) (UniProt O00329)
# Test: Assessment of PIK3CD Kinase Activity
# Chain of PIK3CD (Human) (O00329 whole entry, looked up): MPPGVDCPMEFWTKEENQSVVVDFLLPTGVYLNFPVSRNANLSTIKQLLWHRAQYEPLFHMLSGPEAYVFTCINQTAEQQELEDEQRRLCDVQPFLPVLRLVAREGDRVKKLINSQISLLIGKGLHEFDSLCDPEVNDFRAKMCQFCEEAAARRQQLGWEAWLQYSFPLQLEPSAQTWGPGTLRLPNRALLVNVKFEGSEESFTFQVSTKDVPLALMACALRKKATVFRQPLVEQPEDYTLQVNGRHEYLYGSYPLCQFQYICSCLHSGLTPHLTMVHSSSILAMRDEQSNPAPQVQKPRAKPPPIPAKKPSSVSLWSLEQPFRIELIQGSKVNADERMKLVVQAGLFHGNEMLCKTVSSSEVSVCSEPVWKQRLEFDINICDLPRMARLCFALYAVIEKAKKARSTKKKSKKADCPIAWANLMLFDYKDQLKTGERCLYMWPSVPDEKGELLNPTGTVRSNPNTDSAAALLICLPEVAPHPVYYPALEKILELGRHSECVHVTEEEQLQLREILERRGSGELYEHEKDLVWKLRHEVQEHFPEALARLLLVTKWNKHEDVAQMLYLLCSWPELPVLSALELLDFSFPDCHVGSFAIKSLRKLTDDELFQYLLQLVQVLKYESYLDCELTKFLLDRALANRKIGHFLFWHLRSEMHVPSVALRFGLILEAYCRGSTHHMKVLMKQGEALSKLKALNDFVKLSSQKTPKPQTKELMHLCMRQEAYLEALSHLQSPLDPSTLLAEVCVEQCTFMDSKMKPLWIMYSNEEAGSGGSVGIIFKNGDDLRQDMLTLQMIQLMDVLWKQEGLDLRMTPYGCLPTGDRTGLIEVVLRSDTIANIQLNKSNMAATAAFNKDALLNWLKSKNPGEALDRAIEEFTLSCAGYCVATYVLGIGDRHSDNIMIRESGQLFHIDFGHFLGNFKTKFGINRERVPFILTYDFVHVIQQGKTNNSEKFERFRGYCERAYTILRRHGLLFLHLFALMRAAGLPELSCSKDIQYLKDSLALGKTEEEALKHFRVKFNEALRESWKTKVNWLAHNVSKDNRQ
row,Structure (SMILES),IC50 [nM]
1,CN(C)C1CN(C(=O)c2nc3c(N4CCC5(CC4)C(=O)NCN5c4ccccc4)ncnc3n2C)C1,500 to 1500
2,Cn1c(C(=O)NCC2CC2)nc2c(N3CCc4c(cnn4-c4ccccc4)C3)ncnc21,250 to 500
3,Cc1ccc(-n2ncc3c2CCN(c2ncnc4c2nc(C(=O)NCC2CC2)n4C)C3)c(C)c1,500 to 1500
4,Cc1cccc(-n2ncc3c2CCN(c2ncnc4c2nc(C(=O)NCC2CC2)n4C)C3)c1,500 to 1500
5,Cn1c(C(=O)NCC2CC2)nc2c(N3CCC(C4C(=O)Nc5ccccc54)CC3)ncnc21 (centres undefined),250 to 500
6,Cc1cccc(C)c1-n1ncc2c1CCN(c1ncnc3c1nc(C(=O)NCC1CC1)n3C)C2,500 to 1500
7,Cc1ccccc1-n1ncc2c1CCN(c1ncnc3c1nc(C(=O)NCC1CC1)n3C)C2,500 to 1500
8,COc1ccc(S(=O)(=O)N2CCN(c3ncnc4c3nc(-c3cnn(C)c3)n4C)CC2)cc1,500 to 1500
9,CC1CN(c2ncnc3c2nc(C(=O)NCC2CC2)n3C)CCC1n1c(=O)[nH]c2ccccc21 (centres undefined),50 to 250

# Results, then the compound that gave them:
row,IC50 [nM],Structure (SMILES)
1,50 to 250,CN1CCN(c2cccc3c2[nH]c(=O)n3C2CCN(c3ncnc4c3nc(C(=O)NCC3CC3)n4C)CC2)CC1
2,< 50,CCCn1cc(-c2nc3c(N4CCC(n5c(=O)[nH]c6ccccc65)CC4)ncnc3n2CC)cn1
3,50 to 250,COc1cccc2c1[nH]c(=O)n2C1CCN(c2ncnc3c2nc(C(=O)NCC2CC2)n3C)CC1
4,50 to 250,Cn1c(C(=O)N2CC[C@@H](F)C2)nc2c(N3CCC(n4c(=O)[nH]c5ccccc54)CC3)ncnc21
5,< 50,Cc1c(-c2nc3c(N4CCC(n5c(=O)[nH]c6c(F)cccc65)CC4)ncnc3n2C)cnn1C
6,< 50,Cn1c(-c2cn[nH]c2)nc2c(N3CCC(n4c(=O)[nH]c5ccccc54)CC3)ncnc21
7,50 to 250,Cn1c(C(=O)NCC2CC2)nc2c(N3CCC(n4c(N)nc5ccccc54)CC3)ncnc21
8,< 50,CCn1c(-c2cn[nH]c2)nc2c(N3CCC(n4c(=O)[nH]c5ccccc54)CC3)ncnc21
9,50 to 250,Cn1c(C(=O)NCC2CC2)nc2c(N3CCC(n4c(=O)[nH]c5ccccc54)CC3)ncnc21
10,< 50,CN(C)c1ccc(-c2nc3c(N4CCC(n5c(=O)[nH]c6ccccc65)CC4)ncnc3n2C)cn1
